Measurements from ChEMBL document CHEMBL1201862, “PubChem BioAssay data set” (2004).
The source made the active and inactive calls.

Key:
[1] = molecular target: T1, High affinity choline transporter 1 (Homo sapiens, UniProt Q9GZV3); experiment: CHT activators, dose response, cell-based, 10-point CRC, membrane potential dye (AID 602376); assay type: functional
T1 sequence (Q9GZV3 whole entry): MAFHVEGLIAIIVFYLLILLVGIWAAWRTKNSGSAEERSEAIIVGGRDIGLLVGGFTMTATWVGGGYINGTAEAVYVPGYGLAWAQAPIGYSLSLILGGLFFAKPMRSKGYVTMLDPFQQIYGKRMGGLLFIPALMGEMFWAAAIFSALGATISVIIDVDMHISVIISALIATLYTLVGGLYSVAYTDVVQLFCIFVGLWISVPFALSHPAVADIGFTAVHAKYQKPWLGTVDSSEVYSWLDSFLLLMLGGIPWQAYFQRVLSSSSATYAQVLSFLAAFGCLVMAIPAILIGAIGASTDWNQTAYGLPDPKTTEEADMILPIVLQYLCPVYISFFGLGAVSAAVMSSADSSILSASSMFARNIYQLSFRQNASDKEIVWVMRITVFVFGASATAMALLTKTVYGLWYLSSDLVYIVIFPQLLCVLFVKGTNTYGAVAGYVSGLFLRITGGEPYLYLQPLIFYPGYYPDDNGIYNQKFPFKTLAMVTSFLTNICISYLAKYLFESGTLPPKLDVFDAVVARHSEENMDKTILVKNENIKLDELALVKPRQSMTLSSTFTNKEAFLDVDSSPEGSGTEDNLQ

CHO-K1 = experiment: (§1) Counterscreen for antagonists of the orexin 1 receptor (OX1R; HCRTR1): Homogeneous time resolved fluorescence (HTRF)-based cell-based dose response assay to identify antagonists of the parental CHO-K1 cell line. [Related pubchem assays (depositor defined):AID434989, AID435008, AID463079, AID485270, AID492963, AID492964, AID492965, AID493232, AID504699, AID504701]; assay type: functional; conditions: Cricetulus griseus
[2] = as §1, with “Fluorescence-based” for “Homogeneous time resolved fluorescence (HTRF)-based”, “cell-based high throughput” for “cell-based”, “CHO” for “CHO-K1”; assay type: functional
[3] = molecular target: T2, Orexin/Hypocretin receptor type 1 (Homo sapiens, UniProt O43613); experiment: Homogeneous Time Resolved Fluorescence (HTRF)-based cell-based high throughput dose response assay for antagonists of the orexin 1 receptor (OX1R; HCRTR1). [Related pubchem assays (depositor defined):AID434989, AID435008, AID463079, AID485270, AID492963, AID492964, AID492965, AID493232, AID504717, AID504718]; assay type: functional
T2 sequence (O43613 whole entry): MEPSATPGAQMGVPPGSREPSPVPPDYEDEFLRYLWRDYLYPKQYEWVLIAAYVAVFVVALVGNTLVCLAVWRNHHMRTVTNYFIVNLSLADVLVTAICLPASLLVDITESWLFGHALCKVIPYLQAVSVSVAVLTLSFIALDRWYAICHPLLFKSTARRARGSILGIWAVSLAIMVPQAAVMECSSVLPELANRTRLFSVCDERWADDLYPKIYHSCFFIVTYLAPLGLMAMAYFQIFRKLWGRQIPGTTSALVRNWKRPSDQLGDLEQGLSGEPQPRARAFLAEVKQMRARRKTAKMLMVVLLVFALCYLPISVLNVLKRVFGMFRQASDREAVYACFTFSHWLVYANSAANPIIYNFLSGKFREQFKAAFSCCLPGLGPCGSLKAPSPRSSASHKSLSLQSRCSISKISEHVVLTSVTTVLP

[4] = molecular target: T2, Orexin/Hypocretin receptor type 1; experiment: Fluorescence-based cell-based high throughput dose response assay for antagonists of the orexin 1 receptor (OX1R; HCRTR1). [Related pubchem assays (depositor defined):AID434989, AID435008, AID463079, AID485270, AID492963, AID492964, AID492965, AID493232, AID504717, AID504718]; assay type: functional
Orexin receptor type 2 [5] = molecular target: T3, Orexin receptor type 2 (Homo sapiens, UniProt O43614); experiment: Counterscreen assay for antagonists of the orexin 1 receptor (OX1R; HCRTR1): Fluorescence-based cell-based dose response assay for antagonists of the orexin 2 receptor (OX2R; HCRTR2), run by assay provider.; assay type: functional
T3 sequence (O43614 whole entry): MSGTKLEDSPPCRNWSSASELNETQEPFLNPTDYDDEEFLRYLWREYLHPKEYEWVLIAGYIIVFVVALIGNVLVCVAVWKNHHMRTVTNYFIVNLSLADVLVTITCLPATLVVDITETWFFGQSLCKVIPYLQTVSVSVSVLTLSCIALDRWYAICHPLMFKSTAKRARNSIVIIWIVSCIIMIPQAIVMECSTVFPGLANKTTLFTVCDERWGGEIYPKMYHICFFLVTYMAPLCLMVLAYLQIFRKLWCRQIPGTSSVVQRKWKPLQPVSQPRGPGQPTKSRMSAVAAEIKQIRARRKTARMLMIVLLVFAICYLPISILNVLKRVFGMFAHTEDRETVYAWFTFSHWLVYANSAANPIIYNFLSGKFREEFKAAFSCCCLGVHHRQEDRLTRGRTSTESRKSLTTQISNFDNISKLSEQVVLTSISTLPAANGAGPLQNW

Orexin receptor type 2 [6] = molecular target: T3, Orexin receptor type 2; experiment: Counterscreen assay for antagonists of the orexin 1 receptor (OX1R; HCRTR1): Homogeneous Time Resolved Fluorescence (HTRF)-based cell-based dose response assay for antagonists of the orexin 2 receptor (OX2R; HCRTR2), run by assay provider.; assay type: functional
[7] = molecular target: T4, Short transient receptor potential channel 4 (Mus musculus, UniProt Q9QUQ5); experiment: mouse TRPC4 channel inhibitors, dose response, cell-based, HEK293 TRPC4/mu-opioid, Fluo-4 calcium (AID 434942); assay type: functional;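 note: potency of inhibitors blocking the TRPC4 calcium response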
T4 sequence (Q9QUQ5 whole entry): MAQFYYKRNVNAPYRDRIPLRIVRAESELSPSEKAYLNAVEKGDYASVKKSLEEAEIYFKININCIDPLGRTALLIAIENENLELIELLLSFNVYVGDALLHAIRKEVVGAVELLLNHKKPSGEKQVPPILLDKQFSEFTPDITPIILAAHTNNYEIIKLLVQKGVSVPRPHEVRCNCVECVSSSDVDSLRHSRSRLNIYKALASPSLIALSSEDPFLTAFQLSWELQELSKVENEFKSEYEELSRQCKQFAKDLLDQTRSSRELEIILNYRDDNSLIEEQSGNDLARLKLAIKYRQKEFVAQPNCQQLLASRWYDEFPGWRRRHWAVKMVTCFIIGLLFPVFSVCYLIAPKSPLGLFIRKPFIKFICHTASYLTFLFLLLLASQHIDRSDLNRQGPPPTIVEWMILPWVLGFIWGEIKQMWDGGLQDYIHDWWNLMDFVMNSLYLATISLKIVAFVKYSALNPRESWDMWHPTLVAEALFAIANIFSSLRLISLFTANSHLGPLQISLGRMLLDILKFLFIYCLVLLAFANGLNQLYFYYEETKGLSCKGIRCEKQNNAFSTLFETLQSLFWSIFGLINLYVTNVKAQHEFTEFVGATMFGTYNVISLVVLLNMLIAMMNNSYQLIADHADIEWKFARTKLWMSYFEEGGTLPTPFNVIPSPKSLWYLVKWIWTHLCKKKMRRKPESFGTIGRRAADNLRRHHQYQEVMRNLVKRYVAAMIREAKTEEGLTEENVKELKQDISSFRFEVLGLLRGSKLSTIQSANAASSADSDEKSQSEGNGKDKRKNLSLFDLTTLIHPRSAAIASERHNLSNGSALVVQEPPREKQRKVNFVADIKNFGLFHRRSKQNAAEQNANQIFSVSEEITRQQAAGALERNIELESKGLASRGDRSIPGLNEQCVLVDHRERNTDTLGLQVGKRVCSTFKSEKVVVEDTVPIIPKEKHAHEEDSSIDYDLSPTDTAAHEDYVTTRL

[8] = molecular target: 26S proteasome non-ATPase regulatory subunit 14 (Homo sapiens, UniProt O00487); experiment: inhibition of proteasome subunit RPN11 – biochemical, fluorescence polarization, uHTS hits, confirmation (AID 602368); assay type: functional
Sequence of 26S proteasome non-ATPase regulatory subunit 14 (O00487 whole entry): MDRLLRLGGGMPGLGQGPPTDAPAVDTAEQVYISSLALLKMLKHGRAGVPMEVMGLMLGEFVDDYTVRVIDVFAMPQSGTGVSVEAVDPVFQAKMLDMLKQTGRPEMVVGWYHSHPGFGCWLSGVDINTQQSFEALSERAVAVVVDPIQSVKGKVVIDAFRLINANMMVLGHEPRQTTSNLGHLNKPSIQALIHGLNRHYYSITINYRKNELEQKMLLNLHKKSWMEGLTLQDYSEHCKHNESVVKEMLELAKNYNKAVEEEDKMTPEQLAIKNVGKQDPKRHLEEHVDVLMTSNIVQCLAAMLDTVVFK

[9] = molecular target: 72 kDa type IV collagenase (Homo sapiens, UniProt P08253); experiment: Dose Response validation of uHTS RPN11 inhibitor hits using a MMP-2 Fluorescence assay.; assay type: functional
Sequence of 72 kDa type IV collagenase (P08253 whole entry): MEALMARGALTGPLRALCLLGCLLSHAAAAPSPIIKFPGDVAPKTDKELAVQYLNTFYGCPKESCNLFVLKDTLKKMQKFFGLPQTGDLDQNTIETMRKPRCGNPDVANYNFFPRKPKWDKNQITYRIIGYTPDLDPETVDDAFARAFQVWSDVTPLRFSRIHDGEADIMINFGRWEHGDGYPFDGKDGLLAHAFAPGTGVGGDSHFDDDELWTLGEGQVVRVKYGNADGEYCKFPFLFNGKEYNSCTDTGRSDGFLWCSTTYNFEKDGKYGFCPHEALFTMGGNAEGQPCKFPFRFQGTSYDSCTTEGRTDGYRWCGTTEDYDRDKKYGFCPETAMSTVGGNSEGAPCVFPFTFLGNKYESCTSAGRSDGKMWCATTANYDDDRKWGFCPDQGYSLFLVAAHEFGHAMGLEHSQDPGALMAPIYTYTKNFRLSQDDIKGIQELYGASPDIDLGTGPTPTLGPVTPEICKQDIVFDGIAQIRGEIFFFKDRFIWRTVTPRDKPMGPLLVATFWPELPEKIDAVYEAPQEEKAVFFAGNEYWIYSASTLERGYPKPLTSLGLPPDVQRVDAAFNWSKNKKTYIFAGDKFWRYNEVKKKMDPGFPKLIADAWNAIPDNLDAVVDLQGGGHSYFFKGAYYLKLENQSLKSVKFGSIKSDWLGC

Prothrombin = Prothrombin (Bos taurus, UniProt P00735); experiment: thrombin inhibition, dose response, biochemical, fluorescence polarization, uHTS hits (AID 602369); assay type: functional
[10] = insulin promoter down-regulators in MIN6 cells, imaging, high-content screening, mouse beta cells (AID 1628); assay type: functional
BJ [11] = experiment: cytotoxicity toward BJ-TERT fibroblasts, dose response, cell-based, RAS-independent, luminescence (AID 1933); assay type: functional; conditions: Homo sapiens
[12] = cytotoxicity in MIN6 insulinoma cells, dose response, cytotoxicity control, cell-based, mouse insulinoma (AID 2122); assay type: functional;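 note: confirmatory high-throughput counterscreen run to flag cytotoxic compounds; mouse MIN-6 beta cells carrying an insulin promoter eGFP reporter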
BJ [13] = experiment: cells; assay type: functional, cell-based; conditions: Homo sapiens
BJ [14] = experiment: cytotoxicity toward BJ-TERT-LT-ST fibroblasts, dose response, cell-based, RAS-independent, luminescence (AID 1935); assay type: functional; conditions: Homo sapiens;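 note: BJ fibroblasts immortalized with TERT plus LT and ST oncogenes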
[15] = cytotoxicity toward DRD oncogenic fibroblasts, dose response, cell-based, non-viral oncogenic, luminescence (AID 1934); assay type: functional; conditions: Homo sapiens
[16] = THP-1 cell cytotoxicity, dose response, cytotoxicity control for non-replicating M. tuberculosis project (AID 489025); assay type: functional
[17] = HepG2 cell cytotoxicity, dose response, cytotoxicity control for non-replicating M. tuberculosis project (AID 489018); assay type: functional; conditions: Mycobacterium tuberculosis
[18] = molecular target: T5, Ubiquitin-conjugating enzyme E2 N (Homo sapiens, UniProt P61088); assay type: functional;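 note: Dose-response confirmation in a TR-FRET assay detecting UBC13-driven polyubiquitin chain formation, inhibition measured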
T5 sequence (P61088 whole entry): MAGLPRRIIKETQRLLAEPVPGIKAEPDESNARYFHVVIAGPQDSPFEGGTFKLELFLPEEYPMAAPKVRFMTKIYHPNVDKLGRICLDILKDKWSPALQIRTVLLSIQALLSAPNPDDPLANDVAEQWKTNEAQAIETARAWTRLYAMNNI

[19] = Vero E6 cell cytotoxicity, dose response, cytotoxicity control for non-replicating M. tuberculosis project, secondary assay (AID 492998); assay type: functional, VeroE6; conditions: Vero C1008
cells = assay type: functional
BJ [20] = experiment: cytotoxicity toward Ras-transformed BJeLR fibroblasts, dose response, cell-based, alamar blue fluorescence, cherrypicked samples (AID 2631); assay type: functional; conditions: Homo sapiens;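 note: confirmatory dose-response assay in RAS-dependent BJ fibroblasts engineered with TERT, LT and ST, with cytotoxicity read by fluorescence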
[21] = Fluorescence-based cell-based high throughput dose response assay for inhibitors of the interaction of nucleotide-binding oligomerization domain containing 2 (NOD2) and the receptor-interacting serine-threonine kinase 2 (RIPK2).; assay type: functional; conditions: Homo sapiens
Beta Lactamase = Beta Lactamase (Pseudomonas aeruginosa, UniProt Q932Y6); experiment: beta-lactamase reporter inhibitor potency, dose response, artefact control for NOD2-RIPK2 interaction inhibitor project, BLA reporter cells, FRET fluorescence (AID 651552); assay type: functional, cell-based
Sequence of Beta Lactamase (Q932Y6 whole entry): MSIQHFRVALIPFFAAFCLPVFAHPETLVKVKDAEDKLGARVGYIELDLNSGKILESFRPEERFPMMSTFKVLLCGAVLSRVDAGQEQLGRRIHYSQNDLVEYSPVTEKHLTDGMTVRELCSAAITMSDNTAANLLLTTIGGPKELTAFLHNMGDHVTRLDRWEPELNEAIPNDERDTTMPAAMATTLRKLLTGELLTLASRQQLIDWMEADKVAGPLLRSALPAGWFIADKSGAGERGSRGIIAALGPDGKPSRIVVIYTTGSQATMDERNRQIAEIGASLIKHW

COc1ccc(C(CCNCc2ccc(OC)c(OC)c2)c2ccc(F)cc2)cc1 (configuration not stated)
EC50 [1]: 20.9 µM (active)

COc1ccc2c(Cl)c(C(=O)N/N=C/c3c(C)[nH]c4ccccc34)sc2c1
IC50 (CHO-K1): > 66.2 µM (inactive) | IC50 [2]: > 49.8 µM (inactive) | IC50 [3]: 2.04 µM (active) | IC50 [4]: 6.57 µM (active) | IC50 (Orexin receptor type 2 [5]): 23.2 µM (inactive) | IC50 (Orexin receptor type 2 [6]): > 50 µM (inactive)

COc1ccc(-c2nc3ccccc3s2)cc1O
IC50 (CHO-K1): > 66.2 µM (inactive) | IC50 [2]: > 49.8 µM (inactive) | IC50 [3]: 3.25 µM (active) | IC50 [4]: 9.38 µM (active) | IC50 (Orexin receptor type 2 [5]): 56 µM (inactive) | IC50 (Orexin receptor type 2 [6]): 9.41 µM (active)

CC[n+]1c(/C=C/Nc2ccccc2)oc2ccc(OC)cc21
EC50 [7]: 3.35 µM (active) | IC50 [8]: 23.2 µM (active) | IC50 [9]: > 100 µM (inactive) | IC50 (Prothrombin): 55.6 µM (active)

CCCCCOc1ccc(Br)cc1/C(C)=N/NC1=NCCN1
IC50 [10]: 1.6 µM (active) | EC50 (BJ [11]): 2.99 µM (active) | IC50 [12]: 1.26 µM (active) | EC50 (BJ [13]): 8.5 µM (active) | EC50 (BJ [14]): 4.48 µM (inconclusive) | EC50 [15]: 5.8 µM (active) | CC50 [16]: 2.09 µM (active) | CC50 [17]: 11.3 µM (active) | IC50 [18]: > 20 µM (inactive) | CC50 [19]: 5.08 µM (active) | IC50 (cells): 21.4 µM (active) | EC50 (BJ [20]): 647 nM (active) | EC50 [1]: 14.8 µM (active) | IC50 [21]: 39.9 µM (inactive) | IC50 (Beta Lactamase): 49.8 µM (inactive)
